What was measured:
[1] = biological target: T1, Prostaglandin G/H synthase 1 (Ovis aries, UniProt P05979); assay: Tested for inhibitory activity against Prostaglandin G/H synthase 1 from ovine
T1 sequence (P05979 whole entry): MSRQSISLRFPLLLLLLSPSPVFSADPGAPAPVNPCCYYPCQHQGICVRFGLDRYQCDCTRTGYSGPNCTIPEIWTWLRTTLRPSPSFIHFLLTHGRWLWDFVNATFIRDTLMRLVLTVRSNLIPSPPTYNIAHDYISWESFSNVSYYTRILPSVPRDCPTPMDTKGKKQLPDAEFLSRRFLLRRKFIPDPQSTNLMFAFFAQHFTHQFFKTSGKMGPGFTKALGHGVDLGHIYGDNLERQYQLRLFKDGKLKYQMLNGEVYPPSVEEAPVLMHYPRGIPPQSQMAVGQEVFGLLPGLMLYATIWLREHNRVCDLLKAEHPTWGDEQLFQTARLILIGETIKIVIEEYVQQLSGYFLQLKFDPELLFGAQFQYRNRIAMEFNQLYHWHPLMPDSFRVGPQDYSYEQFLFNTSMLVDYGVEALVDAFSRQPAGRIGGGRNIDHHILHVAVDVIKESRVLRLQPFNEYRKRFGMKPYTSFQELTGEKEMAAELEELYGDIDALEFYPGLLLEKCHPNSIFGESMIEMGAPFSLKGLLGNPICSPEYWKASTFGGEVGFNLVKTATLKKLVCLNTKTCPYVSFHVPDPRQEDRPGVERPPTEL

Rattus norvegicus [2] = assay: In vivo effective dose required for antiinflammatory activity in rat adjuvant arthritis model; type: functional
Rattus norvegicus [3] = assay: The compound was tested for maximum blood level reached in rats at 15.9 uM/Kg after peroral administration.; type: ADME, organism-based; parameters: dose 15.9 uM/Kg, route oral; conditions: in vivo, po
Rattus norvegicus [4] = assay: The compound was tested for maximum blood level reached in rats at 15.9 uM/Kg after intravenous administration.; type: ADME, organism-based; parameters: dose 15.9 uM/Kg, route intravenous; conditions: in vivo, 15.9 µmol/kg

SMILES: CS(=O)(=O)c1ccc(-c2[nH]c(SC#N)cc2-c2ccc(F)cc2)cc1
- IC50 [1]: 219 µM
- ED50 (Rattus norvegicus [2]): 10.47 µM

SMILES: CS(=O)(=O)c1ccc(-c2[nH]c(Br)cc2-c2ccc(F)cc2)cc1
- Cmax (Rattus norvegicus [3]; 15.9 µmol/kg): 3 uM l-1
- IC50 [1]: 132 µM
- Cmax (Rattus norvegicus [4]): 2 uM l-1
- ED50 (Rattus norvegicus [2]): 2.66 µM

SMILES: CS(=O)(=O)c1ccc(-c2[nH]c(Br)c(Cl)c2-c2ccc(F)cc2)cc1
- ED50 (Rattus norvegicus [2]): 9.98 µM

SMILES: CC(=O)n1c(Br)cc(-c2ccc(F)cc2)c1-c1ccc(S(C)(=O)=O)cc1
- ED50 (Rattus norvegicus [2]): 82.95 µM

SMILES: CS(=O)(=O)c1ccc(-c2[nH]c(I)c(I)c2-c2ccc(F)cc2)cc1
- IC50 [1]: 127 µM
- ED50 (Rattus norvegicus [2]): 72.82 µM

SMILES: CS(=O)(=O)c1ccc(-c2[nH]c(I)cc2-c2ccc(F)cc2)cc1
- IC50 [1]: > 300 µM
- ED50 (Rattus norvegicus [2]): 49.86 µM

SMILES: Cn1c(Br)c(Br)c(-c2ccc(F)cc2)c1-c1ccc(S(C)(=O)=O)cc1
- IC50 [1]: 767 µM
- ED50 (Rattus norvegicus [2]): 8.54 µM

SMILES: Cn1c(Cl)c(Cl)c(-c2ccc(F)cc2)c1-c1ccc(S(C)(=O)=O)cc1
- IC50 [1]: 650 µM
- ED50 (Rattus norvegicus [2]): 12.55 µM

SMILES: CS(=O)(=O)c1ccc(-c2[nH]c(C(=O)C(F)(F)F)cc2-c2ccc(F)cc2)cc1
- IC50 [1]: 580 µM
- ED50 (Rattus norvegicus [2]): 47.16 µM

SMILES: Cn1ccc(-c2ccc(F)cc2)c1-c1ccc(S(C)(=O)=O)cc1
- IC50 [1]: > 300 µM
- ED50 (Rattus norvegicus [2]): >303 µM

SMILES: Cn1c(Br)cc(-c2ccc(F)cc2)c1-c1ccc(S(C)(=O)=O)cc1
- Cmax (Rattus norvegicus [3]; 15.9 µmol/kg): 1.5 uM l-1
- IC50 [1]: 516 µM
- Cmax (Rattus norvegicus [4]): 2.9 uM l-1
- ED50 (Rattus norvegicus [2]): 4.16 µM

SMILES: CS(=O)(=O)c1ccc(-c2[nH]c(S(C)(=O)=O)cc2-c2ccc(F)cc2)cc1
- IC50 [1]: > 300 µM
- ED50 (Rattus norvegicus [2]): 93.02 µM

SMILES: CS(=O)(=O)c1ccc(-c2[nH]c(Cl)c(Cl)c2-c2ccc(F)cc2)cc1
- IC50 [1]: 20 µM
- ED50 (Rattus norvegicus [2]): 3.9 µM

SMILES: CS(=O)(=O)c1ccc(-c2[nH]c(Cl)c(Br)c2-c2ccc(F)cc2)cc1
- IC50 [1]: 44 µM
- ED50 (Rattus norvegicus [2]): 7.93 µM

SMILES: CC(C)(C)OC(=O)n1c(Br)cc(-c2ccc(F)cc2)c1-c1ccc(S(C)(=O)=O)cc1
- IC50 [1]: > 300 µM
- ED50 (Rattus norvegicus [2]): 32 µM

SMILES: CS(=O)(=O)c1ccc(-c2[nH]ccc2-c2ccc(F)cc2)cc1
- Cmax (Rattus norvegicus [3]): < 0.1 uM l-1
- IC50 [1]: 373 µM
- ED50 (Rattus norvegicus [2]): >317 µM

SMILES: CS(=O)(=O)c1ccc(-c2[nH]c([N+](=O)[O-])cc2-c2ccc(F)cc2)cc1
- ED50 (Rattus norvegicus [2]): 24.97 µM

SMILES: CS(=O)(=O)c1ccc(-c2[nH]c(Cl)cc2-c2ccc(F)cc2)cc1
- Cmax (Rattus norvegicus [3]; 15.9 µmol/kg): 2.3 uM l-1
- IC50 [1]: 94 µM
- Cmax (Rattus norvegicus [4]): 1.4 uM l-1

SMILES: CSc1cc(-c2ccc(F)cc2)c(-c2ccc(S(C)(=O)=O)cc2)[nH]1
- IC50 [1]: 36 µM
- ED50 (Rattus norvegicus [2]): 4.89 µM

SMILES: CS(=O)(=O)c1ccc(-c2[nH]c(C#N)cc2-c2ccc(F)cc2)cc1
- Cmax (Rattus norvegicus [3]; 15.9 µmol/kg): 2.9 uM l-1
- Cmax (Rattus norvegicus [4]): 4.1 uM l-1
- ED50 (Rattus norvegicus [2]): 3.82 µM

SMILES: CC(=O)Oc1ccccc1C(=O)O [ASPIRIN]
- ED50 (Rattus norvegicus [2]): 1942.7 µM

SMILES: CC(C)Cc1ccc(C(C)C(=O)O)cc1 (stereo not given) [IBUPROFEN]
- ED50 (Rattus norvegicus [2]): 484.8 µM

SMILES: COc1ccc2c(c1)c(CC(=O)O)c(C)n2C(=O)c1ccc(Cl)cc1 [INDOMETHACIN]
- ED50 (Rattus norvegicus [2]): 0.84 µM

SMILES: CCCCC1C(=O)N(c2ccccc2)N(c2ccccc2)C1=O [PHENYLBUTAZONE]
- IC50 [1]: 384 µM
- ED50 (Rattus norvegicus [2]): 32.4 µM

SMILES: CN1C(C(=O)Nc2ccccn2)=C(O)c2ccccc2S1(=O)=O [PIROXICAM]
- ED50 (Rattus norvegicus [2]): 1.3 µM

From ChEMBL document CHEMBL1128445, “Antiinflammatory 4,5-diarylpyrroles. 2. Activity as a function of cyclooxygenase-2 inhibition” (J Med Chem, 1995)
